Results reported in paper PMC11189516, “Structure-guided conversion from an anaplastic lymphoma kinase inhibitor into Plasmodium lysyl-tRNA synthetase selective inhibitors” (Communications Biology, 2024).
Where “and” joins values, the source holds several entries; their conditions need not be identical. Equal values may be shown once. Read-outs that look alike come from different tables or passages of the source.

Columns and labels:
[1] = biological target: T1, PfLysRS (Plasmodium falciparum, UniProt Q8IDJ8); assay: Thermal shift assay; type: binding
T1 construct: PfLysRS (77–583) was constructed in the vector pET20b, with a C-terminal 6×His tag; 6xHis (C); made in house; host or cells: E. coli BL21 (DE3)
T1 sequence (Q8IDJ8 entry or part of it): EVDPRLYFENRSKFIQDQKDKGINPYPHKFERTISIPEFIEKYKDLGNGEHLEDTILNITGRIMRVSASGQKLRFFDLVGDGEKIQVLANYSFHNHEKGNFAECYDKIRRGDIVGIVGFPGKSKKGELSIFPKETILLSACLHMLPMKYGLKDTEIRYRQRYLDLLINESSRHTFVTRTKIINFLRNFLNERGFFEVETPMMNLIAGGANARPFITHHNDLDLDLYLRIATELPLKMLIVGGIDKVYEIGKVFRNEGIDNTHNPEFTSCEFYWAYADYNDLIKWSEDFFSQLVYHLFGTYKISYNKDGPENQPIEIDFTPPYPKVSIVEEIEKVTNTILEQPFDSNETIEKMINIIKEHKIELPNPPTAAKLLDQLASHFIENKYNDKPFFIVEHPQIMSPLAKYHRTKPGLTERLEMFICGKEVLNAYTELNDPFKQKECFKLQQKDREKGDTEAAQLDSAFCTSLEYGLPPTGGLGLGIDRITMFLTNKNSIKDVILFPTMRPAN
Protocol: PfLysRS protein was prepared at 10 μM concentration in a buffer containing 20 mM Tris pH 8.0, 200 mM NaCl, 500 μM L-lysine, and 200 μM Compound. Aliquots (18 µL) were added to a 96-well PCR plate and incubated at ambient temperature for 10 min. SYPRO Orange dye (Sigma) was diluted in the assay buffer containing 20 mM Tris pH 8.0 and 200 mM NaCl to a 40× concentration, and 2 µL of the 40× dye solution was added to the PCR plate to bring the final assay volume to 20 µL. After complete mixing, the final solutions were heated from 25 to 90 °C at a rate of 0.015 °C per sec, and fluorescence signals were monitored by QuantStudio 3 (Applied Biosystems by Thermo Fisher Scientific).

[2] = biological target: T2, HsLysRS (Homo sapiens, UniProt Q15046); assay: ATP hydrolysis assay (Kinase-Glo) on HsLysRS; type: biochemical; details: for LogIC50 (best-fit value): log of nM
T2 construct: HsLysRS (70–581) was constructed in the vector pET20b with a C-terminal 6×His tag; 6xHis (C); made in house; host or cells: E. coli (pET20b; 'purified similarly' to PfLysRS, which was expressed in BL21 (DE3))
T2 sequence (Q15046 70-581): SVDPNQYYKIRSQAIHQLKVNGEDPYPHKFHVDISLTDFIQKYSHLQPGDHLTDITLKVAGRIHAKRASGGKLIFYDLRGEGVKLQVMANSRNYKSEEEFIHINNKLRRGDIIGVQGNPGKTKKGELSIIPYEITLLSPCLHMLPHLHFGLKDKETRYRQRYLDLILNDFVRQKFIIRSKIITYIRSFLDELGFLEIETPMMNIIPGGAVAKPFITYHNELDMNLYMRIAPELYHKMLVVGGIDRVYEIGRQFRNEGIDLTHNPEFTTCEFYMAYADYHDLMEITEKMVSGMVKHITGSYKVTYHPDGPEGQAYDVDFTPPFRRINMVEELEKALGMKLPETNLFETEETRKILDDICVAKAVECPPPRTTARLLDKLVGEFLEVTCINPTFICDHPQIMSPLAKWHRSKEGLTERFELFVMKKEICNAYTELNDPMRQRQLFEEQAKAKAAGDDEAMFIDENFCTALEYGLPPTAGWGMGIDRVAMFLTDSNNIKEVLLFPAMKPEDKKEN
Protocol: (§1) The ATP hydrolysis assays were based on Kinase-Glo luminescent Kit (Promega). The experiment was carried out in Corning 384-well white flat bottom microplates. The buffer in the reaction contains 25 mM Hepes pH 7.4, 140 mM NaCl, 40 mM MgCl2, 30 mM KCl, 1 mM TCEP, 0.1 mg·mL^−1 BSA, and 0.004% Tween-20. The compounds were diluted to different concentrations with a 5-fold gradient.
For LysRS assays, DMSO was added into negative control wells and L-lysine was removed in positive control wells. 100 nM LysRS in 2.5 μL Hepes buffer was mixed with compounds and incubated for 10 min. Then 5 μL substrate mixture (2 μM ATP, 10 μM L-lysine and 31 nM pyrophosphatase) was added to start the reaction at 37 °C and incubated for 6 h.
(§2) When the reaction reaches the planned time, 10 μL diluted Kinase-Glo reagent (1/50 diluted with a buffer containing 50 mM Tris pH 7.5 and 5% glycerol) was added and incubated for 15 min. Luminescence was measured on the Magellan plate reader (Tecan) and nonlinear regression was performed with Prism (GraphPad).

[3] = biological target: T3, ALK (Homo sapiens, UniProt Q9UM73); assay: ATP hydrolysis assay (Kinase-Glo) on ALK; type: biochemical; details: for LogIC50 (best-fit value): log of nM
T3 construct: The plasmid pCDNA3.1_8×His-tev-ALK (kinase domain, 1068–1410) was constructed; 8xHis (N); TEV site (N); made in house; host or cells: Expi293 cells (transient transfection)
T3 sequence (Q9UM73 1068-1410): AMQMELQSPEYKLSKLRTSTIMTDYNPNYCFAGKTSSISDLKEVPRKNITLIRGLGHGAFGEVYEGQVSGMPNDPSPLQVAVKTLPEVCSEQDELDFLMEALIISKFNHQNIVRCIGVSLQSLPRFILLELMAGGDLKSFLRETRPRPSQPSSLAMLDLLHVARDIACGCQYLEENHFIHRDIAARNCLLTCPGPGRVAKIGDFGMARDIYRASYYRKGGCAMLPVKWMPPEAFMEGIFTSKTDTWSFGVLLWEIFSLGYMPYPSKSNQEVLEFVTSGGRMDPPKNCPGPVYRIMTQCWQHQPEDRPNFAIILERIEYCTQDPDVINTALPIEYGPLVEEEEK
Protocol: as §1
For ALK assays, DMSO was added into negative control wells. 100 nM ALK in 2.5 μL Hepes buffer was mixed with compounds and incubated for 10 min. Then 5 μL substrate (2 μM ATP) was added to start the reaction at 37 °C and incubated for 6 h.
as §2

[4] = system: erythrocytic-stage P. falciparum 3D7 parasites; assay: In vitro Plasmodium growth assay; type: cell-based, Plasmodium falciparum; details: for HillSlope (best-fit value): Plasmodium falciparum 3D7; for LogIC50 (best-fit value): Plasmodium falciparum 3D7, log of nM; for IC50: Plasmodium falciparum 3D7, source data, read-out: IC50 (best-fit value); for EC50: Plasmodium falciparum, 3D7, 72 h
Protocol: Parasites were cultured in human O+ erythrocytes according to standard procedures. To prepare the >80% ring stage parasites, asynchronous cultures of parasites were pretreated with 5% sorbitol, and P. falciparum strain 3D7 at the mid-ring stage (6–10 h post-invasion) was used to test antimalarial effects in 96-well plates. Parasites were incubated in a 96-well plate with compound containing 1% parasitemia and, 2% hematocrit for a total volume of 200 μL. […] A relevant DMSO concentration was used as a negative control, and cultured erythrocytes without Plasmodium served as a positive control. The parasites were allowed to grow for 72 h at 37 °C with 5% CO2, 5% O2, and 90% N2. After 72 h, 100 μL of lysis buffer (0.12 mg·mL^−1 Saponin, 0.12% Triton X-100, 30 mM Tris-HCl pH 8.0, and 7.5 mM EDTA) with 5× SYBR Green I (Invitrogen; supplied in 10000× concentration) was added to each well of the plate. The plates were then incubated for 2 h in the dark prior to reading the fluorescence signal at 485 nm excitation and 535 nm emission. The percentage of inhibition was calculated by (NC-fluorescence) × 100/(NC-PC).

[5] = Solubility noted in the cytotoxicity assay; type: physicochemical; details: highest concentration limited to 100 μM in cell medium
Protocol: Cell viability was analyzed by Cell Counting Kit-8 (CCK8, ApexBio) according to the manufacturer’s protocols. Cells were seeded and cultured at a density of 2.5 × 10^3 cells per well in 100 μL medium in 96-well microplates (Corning). Then, the cells were treated with different concentrations of compound (0, 1 μM, 3 μM, 10 μM, 100 μM, 300 μM). […] After treatment for 72 h, 10 μL of CCK-8 reagent was added to each well and then cultured for 4 h. All experiments were performed in pentaplicate. The absorbance was analyzed at 450 nm using a microplate reader (Tecan) using medium without cells as blanks. Data was processed using GraphPad Prism 9.

[6] = +Lysine, sheet Figure 6B, in °C (unit assumed)
[7] = HsLysRS, Log(Concentration)/nM 2.505, single repeats
[8] = HsLysRS, Log(Concentration)/nM 3.204, single repeats
[9] = HsLysRS, Log(Concentration)/nM 3.903, single repeats
[10] = HsLysRS, Log(Concentration)/nM 4.602, single repeats
[11] = HsLysRS, Log(Concentration)/nM 5.301, single repeats
[12] = HsLysRS, source data, read-out: IC50 (best-fit value)
[13] = ALK, source data, read-out: IC50 (best-fit value)
[14] = P. falciparum 3D7, Log(Concentration)/nM 2.290, single repeats
[15] = P. falciparum 3D7, Log(Concentration)/nM 2.592, single repeats
[16] = P. falciparum 3D7, Log(Concentration)/nM 2.893, single repeats
[17] = P. falciparum 3D7, Log(Concentration)/nM 3.193, single repeats
[18] = P. falciparum 3D7, Log(Concentration)/nM 3.496, single repeats
[19] = P. falciparum 3D7, Log(Concentration)/nM 3.796, single repeats
[20] = P. falciparum 3D7, Log(Concentration)/nM 4.097, single repeats
[21] = P. falciparum 3D7, Log(Concentration)/nM 4.398, single repeats
[22] = P. falciparum 3D7, Log(Concentration)/nM 4.699, single repeats
[23] = P. falciparum 3D7, Log(Concentration)/nM 5.000, single repeats

Compound | Tm of PfLysRS, Average ([1]; +Lysine) [°C] | Tm of PfLysRS, single repeat ([1]; +Lysine) | Tm of PfLysRS, Average ([1]; -Lysine) [°C] | Tm of PfLysRS, single repeat ([1]; -Lysine) | ΔTm at 200 µM ([1]; in the absence of L-lysine) [°C] | ΔTm at 200 µM ([1]; in the presence of L-lysine) [°C] | HillSlope (best-fit value) ([2]; HsLysRS) | % Inhibition [2, 7] | % Inhibition [2, 8] | % Inhibition [2, 9] | % Inhibition [2, 10] | % Inhibition [2, 11] | LogIC50 (best-fit value) ([2]; HsLysRS) | IC50 [2, 12] [µM] | IC50 ([2]; read-out: IC50 against HsLysRS) [µM] | HillSlope (best-fit value) ([3]; ALK) | LogIC50 (best-fit value) ([3]; ALK) | IC50 [3, 13] [µM] | IC50 ([3]; read-out: IC50 against ALK) [µM] | % Inhibition [4, 14] | further results
COc1ccc(OC)c(Nc2ncnc(Nc3ccccc3S(=O)(=O)C(C)C)n2)c1 [Compound 36] | 54.438 | 54.731 °C and 54.237 °C and 54.854 °C and 53.929 °C | 53.158 | 53.374 °C and 52.819 °C and 53.251 °C and 53.189 °C | 11.7 | 11.8 | 0.3683 | 19.3% and 12.84% and 21.95% | 37.3% and 27.64% and 28.87% | 26.36% and 22.16% and 26.38% | 50.64% and 39% and 42.59% | 74.45% and 64.99% and 63.03% | 5.258 | 181 | > 181 | 0.6864 | 4.281 | 19.1 | > 19.1 | -1.297% and 4.596% and -3.299% | △Tm of PfLysRS ([1]; +Lysine, sheet Figure 6B): 10.644; Tm of PfLysRS, Average [1, 6]: 55.664; Tm of PfLysRS, single repeat [1, 6]: 55.710 and 55.464 and 56.018; % Inhibition ([2]; HsLysRS, Log(Concentration)/nM 1.806, single repeats): 3.227% and 2.137% and -5.363%; % Inhibition [4, 15]: 14.49% and 16.27% and 6.82%; % Inhibition [4, 16]: 56.52% and 50.3% and 49.85%; % Inhibition [4, 17]: 89.44% and 83.77% and 86.88%; % Inhibition [4, 18]: 95.44% and 97.78% and 98.22%; % Inhibition [4, 19]: 97.55% and 97.66% and 100.2%; % Inhibition [4, 20]: 99.56% and 100.2% and 100.1%; % Inhibition [4, 21]: 98.55% and 100.8% and 100.2%; % Inhibition [4, 22]: 98.67% and 100.8% and 100.6%; % Inhibition [4, 23]: 90.1% and 96% and 96.11%; HillSlope (best-fit value) [4]: 2.726; LogIC50 (best-fit value) [4]: 2.867; IC50 [4]: 0.736 µM; EC50 [4]: 0.736 µM; solubility [5]: poor solubility
COc1ccccc1Nc1ncnc(Nc2ccccc2S(=O)(=O)C(C)C)n1 [Compound 38] | 52.704 | 52.703 °C and 52.673 °C and 52.642 °C and 52.796 °C | 50.586 | 50.911 °C and 50.756 °C and 50.045 °C and 50.632 °C | 7.6 | ~9 | 2.263 | 4.732% and 9.196% and 7.614% | 10.26% and 9.294% and 11.16% | 5.367% and 4.771% and 4.914% | 24.12% and 17.72% and 16.76% | 34.85% and 34.96% and 31.62% | 5.476 | 299 | 299 ± 34 | 1.505 | 2.726 | 0.532 | 0.532 | 0.5244% and -0.5244% | % Inhibition ([2]; HsLysRS, Log(Concentration)/nM 6.000, single repeats): 100.3% and 101% and 91.99%; selectivity of PfLysRS over human LysRS (HsLysRS) ([2]; in vitro): 328 times; % Inhibition [4, 15]: 0.1049% and 1.993%; % Inhibition [4, 16]: 5.139% and 2.098%; % Inhibition [4, 17]: 11.12% and 9.229%; % Inhibition [4, 18]: 30.2% and 31.57%; % Inhibition [4, 19]: 64.29% and 65.65%; % Inhibition [4, 20]: 93.45% and 91.87%; % Inhibition [4, 21]: 99.84% and 98.9%; % Inhibition [4, 22]: 100.4% and 99.63%; % Inhibition [4, 23]: 98.16% and 95.65%; HillSlope (best-fit value) [4]: 2.23; LogIC50 (best-fit value) [4]: 3.663; IC50 [4]: 4.61 µM; EC50 [4]: 4.61 ± 0.12 µM; solubility [5]: poor solubility
